This is an account of results in ChEMBL document CHEMBL1201862, “PubChem BioAssay data set” (2004).

The source made the active and inactive calls. A value given as a limit tells only on which side of the number the result lay.

Assay [1] can be described thus: P. falciparum Dd2 blood-stage growth inhibition, dose response, SYBR Green fluorescence, erythrocytes, dry powder, set 2 (AID 1159574). It counts as functional, cell-based.
The nature of assay [2]: A375 melanoma cell cytotoxicity, dose response, counter-screen for MITF inhibitor project, CellTiter-Glo luminescence, dry powder, set 2 (AID 624489).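 Note: actives are compounds lowering A375 viability meaning general cytotoxicity.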 As to conditions: A-375. It counts as functional, cell-based. A general note: A counterscreen serves to expose hits that act by an unwanted route or on another target.
A short description of assay [3]: A375 melanoma cell viability loss, dose response, counter-screen for MITF inhibitor project, CellTiter-Glo luminescence, dry powder, set 4 (AID 624364).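 Note: A375 melanoma cells are MITF independent so this is a counter screen.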 It counts as functional, cell-based. As to conditions: A-375.
Assay [4] deals with C-X-C chemokine receptor type 4 (Homo sapiens, UniProt P61073). As to the kind of experiment: SAR analysis of small molecule antagonists of the CXCR6 receptor using a CXCR4 receptor luminescent beta-arrestin counterscreen. It counts as functional.
The target in assay [5] is C-C chemokine receptor type 6 (Homo sapiens, UniProt P51684). Nature of the assay: SAR analysis of small molecule antagonists of the CXCR6 receptor using a CCR6 receptor luminescent beta-arrestin counterscreen. It counts as functional.
Assay [6] is described as follows: Luminescence-based cell-based high throughput dose response assay to identify activators of the DAF-12 from the parasite S. stercoralis (ssDAF-12). It counts as functional.
The target in assay [7] is T1, Oxysterols receptor LXR-beta (Homo sapiens, UniProt P55055).
T1 sequence (P55055 whole entry): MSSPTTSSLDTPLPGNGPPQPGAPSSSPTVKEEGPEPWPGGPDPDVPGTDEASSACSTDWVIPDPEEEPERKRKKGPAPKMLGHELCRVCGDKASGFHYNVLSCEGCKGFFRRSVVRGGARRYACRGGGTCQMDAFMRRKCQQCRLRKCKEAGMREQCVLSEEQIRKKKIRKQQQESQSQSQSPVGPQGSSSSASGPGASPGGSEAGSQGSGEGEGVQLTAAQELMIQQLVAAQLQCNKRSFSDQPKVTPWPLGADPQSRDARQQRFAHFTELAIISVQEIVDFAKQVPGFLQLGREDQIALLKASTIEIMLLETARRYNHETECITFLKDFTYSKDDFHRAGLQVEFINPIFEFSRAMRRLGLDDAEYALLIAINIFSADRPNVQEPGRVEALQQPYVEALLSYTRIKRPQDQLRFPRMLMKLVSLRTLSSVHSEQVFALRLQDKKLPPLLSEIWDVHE
Nature of the assay: LXR agonists, Gal4 luciferase reporter, dose response, counter-screen for ssDAF-12 agonist project, cell-based, luminescence, HEK293, S. stercoralis campaign (AID 720737). It counts as functional. Particulars: read-out: IC50 (the source's name). Background: A reporter such as luciferase makes a cellular process visible.

Assay [8] is described as follows: cytotoxicity toward DRD oncogenic fibroblasts, dose response, cell-based, non-viral oncogenic, luminescence (AID 1934). As to conditions: Homo sapiens. It counts as functional.
A short description of assay [9]: CFTR ΔF508 corrector activity in bronchial cells, dose response, human bronchial epithelial cells, plate reader, cherry-pick, two tests (AID 743267). It counts as functional, cell-based.
The test system of assay [10] is BJ. Nature of the assay: cytotoxicity toward BJ-TERT fibroblasts, dose response, cell-based, RAS-independent, luminescence (AID 1933). It counts as functional. Particulars: Homo sapiens.
Assay [11] relates to BJ. As to the kind of experiment: cells. As to conditions: Homo sapiens. It counts as functional, cell-based.
In assay [12] the test system is BJ. Nature of the assay: cytotoxicity toward BJ-TERT-LT-ST fibroblasts, dose response, cell-based, RAS-independent, luminescence (AID 1935).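 Note: BJ fibroblasts immortalized with TERT plus LT and ST oncogenes.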 It counts as functional. Particulars: Homo sapiens.
The target in assay [13] is Protein disulfide-isomerase (Homo sapiens, UniProt P07237). Nature of the assay: PDI inhibitors, insulin turbidity readout, confirmation, biochemical, dry powder samples, set 2 (AID 652146).
Assay [14] is described as follows: HepG2 cell cytotoxicity, dose response, cytotoxicity control, ATP luminescence, dry powder (AID 652118). It counts as functional, cell-based.
Assay [15] in a line: cytotoxicity in MIN6 insulinoma cells, dose response, cytotoxicity control, cell-based, mouse insulinoma (AID 2122).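 Note: confirmatory high-throughput counterscreen run to flag cytotoxic compounds; mouse MIN-6 beta cells carrying an insulin promoter eGFP reporter.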 It counts as functional.
Assay [16] in a line: HepG2 cell cytotoxicity, dose response, cytotoxicity control for Shn3 inhibitor project, CellTiter-Glo, cherry-picked (AID 624134). It counts as functional, cell-based.
A short description of assay [17]: Shn3 3'UTR reporter inhibitors, dose response, cell-based, Clone20 osteoblasts, firefly luciferase, cherry-picked (AID 624132).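 Note: firefly luciferase luminescence from reporter carrying the Shn3 3'UTR in osteoblasts.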 It counts as functional.
The nature of assay [18]: reduction of Shn3 3'UTR firefly luciferase signal, dose response, Schnurri-3 inhibitor project, cell-based, Clone20 osteoblasts, cherry-pick, set 2 (AID 720490).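 Note: actives lower the luminescence signal as inhibitors.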 It counts as functional.
Assay [19] can be described thus: control 3'UTR Renilla luciferase suppression, dose response, counter-screen for Shn3 inhibitor project, cell-based, Clone20-Shn3RL, cherry-picked (AID 624133). It counts as functional.
The subject of the next assay is INS1. Nature of the assay: beta cell apoptosis inhibitors, cytokine rescue, dose response, luminescence, retest (AID 449756).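 Note: cell death triggered by IL-1 beta plus TNF-alpha plus IFN-gamma mixture; protective hits raise ATP signal compared with cytokine alone wells.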 It counts as functional, cell-based. As to conditions: Rattus norvegicus.
A short description of assay [20]: insulin promoter down-regulators in MIN6 cells, imaging, high-content screening, mouse beta cells (AID 1628). It counts as functional.

Sequence of Protein disulfide-isomerase (P07237 whole entry): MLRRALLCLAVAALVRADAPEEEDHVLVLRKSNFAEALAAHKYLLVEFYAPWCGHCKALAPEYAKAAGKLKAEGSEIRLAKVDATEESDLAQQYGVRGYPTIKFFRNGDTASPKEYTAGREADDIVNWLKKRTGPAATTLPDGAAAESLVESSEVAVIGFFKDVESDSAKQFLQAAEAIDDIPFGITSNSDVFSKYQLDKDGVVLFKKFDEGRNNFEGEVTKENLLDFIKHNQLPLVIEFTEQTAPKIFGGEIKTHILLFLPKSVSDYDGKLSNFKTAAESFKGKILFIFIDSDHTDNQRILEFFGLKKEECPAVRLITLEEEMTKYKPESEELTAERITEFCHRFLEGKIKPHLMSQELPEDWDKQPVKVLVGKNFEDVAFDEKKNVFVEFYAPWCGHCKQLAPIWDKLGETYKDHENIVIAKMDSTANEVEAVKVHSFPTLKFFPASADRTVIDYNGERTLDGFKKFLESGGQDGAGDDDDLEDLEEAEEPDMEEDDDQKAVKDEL
Sequence of C-X-C chemokine receptor type 4 (P61073 whole entry): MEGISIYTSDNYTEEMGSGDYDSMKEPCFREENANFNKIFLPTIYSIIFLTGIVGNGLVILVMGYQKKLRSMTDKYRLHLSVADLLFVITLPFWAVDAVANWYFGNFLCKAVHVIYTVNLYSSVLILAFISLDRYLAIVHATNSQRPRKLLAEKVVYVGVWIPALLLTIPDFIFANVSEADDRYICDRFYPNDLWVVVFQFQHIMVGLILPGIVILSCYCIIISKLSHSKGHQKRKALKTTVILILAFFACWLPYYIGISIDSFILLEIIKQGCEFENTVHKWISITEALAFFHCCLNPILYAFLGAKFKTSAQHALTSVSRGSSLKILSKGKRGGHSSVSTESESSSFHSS
Sequence of C-C chemokine receptor type 6 (P51684 whole entry): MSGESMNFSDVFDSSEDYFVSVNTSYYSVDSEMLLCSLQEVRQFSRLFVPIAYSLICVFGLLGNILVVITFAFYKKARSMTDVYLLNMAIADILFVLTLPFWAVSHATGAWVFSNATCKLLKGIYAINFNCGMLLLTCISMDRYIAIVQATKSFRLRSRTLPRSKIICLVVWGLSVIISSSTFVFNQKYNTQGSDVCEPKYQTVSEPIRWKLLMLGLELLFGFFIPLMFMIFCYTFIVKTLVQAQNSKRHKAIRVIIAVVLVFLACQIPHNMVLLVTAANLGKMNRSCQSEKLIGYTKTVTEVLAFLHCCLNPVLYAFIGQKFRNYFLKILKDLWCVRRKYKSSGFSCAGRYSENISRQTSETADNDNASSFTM

As usually defined, the AC50 is the concentration giving half of the maximal activity seen. As to `COc1ccc(S(=O)(=O)N(C)C[C@H]2OCc3ccccc3-c3c(n(C)c4ccccc34)C(=O)N([C@@H](C)CO)C[C@H]2C)cc1`, the AC50 in [1] is 5.13 µM (active).
As to `O=C1C(NS(=O)(=O)c2ccccc2)=C(N2CCOCC2)C(=O)c2ccccc21`, the AC50 in assay [2] and in assay [3] was > 70 µM (inactive) throughout.
What is called IC50 is the concentration that gives 50% inhibition. Regarding `COc1ccccc1NC(=O)CN1C2CCCC1CC(NC(=O)c1cc(OC)c(OC)c(OC)c1)C2` (stereo unspecified), the IC50 in [4] and in assay [5] was > 79 µM (inactive) each time.
As to `O=C(Nc1cccc(O)c1)c1c(O)nc2ccccc2c1O`, the IC50 in assay [6] was > 67.5 µM (inactive). Further, the EC50 in assay [7] was > 67.5 µM (inactive).
On to `COc1ccccc1NC1=C(C(N)=O)C(=N)C(C(=O)Nc2cccc(Cl)c2Cl)S1` (stereo unspecified), for which the EC50 in [8] was 4.27 µM (active); in the assay on BJ [10] it was 14.5 µM (active); in the assay with BJ [11], 33.3 µM (inconclusive); in the assay on BJ [12], 22.3 µM (active). The AC50 in assay [9] was 6.08 µM (active).
In the case of `CCOC(=O)C1(CCOc2ccccc2)CCN(C(=O)OC(C)(C)C)CC1`, the AC50 in assay [13] was > 30 µM (inactive); in assay [14], 44.4 µM (active).
As for `Oc1ccc(-c2[nH]nc(C(F)(F)F)c2-c2ccccc2)c(O)c1`, the IC50 in [15] is 547 nM (active); in [20], 666 nM (active). The AC50 in assay [16] was 53.2 µM (active); in [17] it was 283 nM (active); in assay [18], 473 nM (active); in assay [19], 2.63 µM (active); in the assay with INS1, 3.81 µM (active).
